# ChEMBL document CHEMBL5532651, “HDAC specificity and kinase off-targeting by purine-benzohydroxamate anti-hematological tumor agents” (Eur J Med Chem, 2024)
# The source made the active and inactive calls. The calls are words filed in the database; no cut-off is given here.
# What was measured:
# [1] = Selectivity index, ratio of IC50 for human HCT-116 cells to IC50 for human Jurkat cells; type: functional
# [2] = Selectivity index, ratio of IC50 for human MCF7 cells to IC50 for human Jurkat cells; type: functional
# [3] = Selectivity index, ratio of IC50 for human HCT-116 cells to IC50 for human NAMALVA cells; type: functional
# [4] = Selectivity index, ratio of IC50 for human MCF7 cells to IC50 for human NAMALVA cells; type: functional
# [5] = Selectivity index, ratio of IC50 for human HS5 cells to IC50 for human Jurkat cells; type: functional
# [6] = Selectivity index, ratio of IC50 for human leukocytes cells to IC50 for human Jurkat cells; type: functional
# Jurkat [7] = assay: Potency index, ratio of Vorinostat IC50 to test compound IC50 for human Jurkat cells assessed as cell growth inhibition incubated for 24 to 72 hrs by MTT assay; type: functional; conditions: time 24-72 hrs
# NAMALVA [8] = assay: Potency index, ratio of Vorinostat IC50 to test compound IC50 for human NAMALVA cells assessed as cell growth inhibition incubated for 24 to 72 hrs by MTT assay; type: functional; conditions: time 24-72 hrs
# Histone deacetylase 1 [9] = biological target: T1, Histone deacetylase 1 (Homo sapiens, UniProt Q13547); assay: Inhibition of full-length recombinant human HDAC1 expressed in baculovirus infected Sf9 cells using RHKK(Ac)AMC as substrate preincubated for 5 to 10 mins followed by substrate addition measured after 2 hrs by fluorescence based assay
# T1 sequence (Q13547 whole entry): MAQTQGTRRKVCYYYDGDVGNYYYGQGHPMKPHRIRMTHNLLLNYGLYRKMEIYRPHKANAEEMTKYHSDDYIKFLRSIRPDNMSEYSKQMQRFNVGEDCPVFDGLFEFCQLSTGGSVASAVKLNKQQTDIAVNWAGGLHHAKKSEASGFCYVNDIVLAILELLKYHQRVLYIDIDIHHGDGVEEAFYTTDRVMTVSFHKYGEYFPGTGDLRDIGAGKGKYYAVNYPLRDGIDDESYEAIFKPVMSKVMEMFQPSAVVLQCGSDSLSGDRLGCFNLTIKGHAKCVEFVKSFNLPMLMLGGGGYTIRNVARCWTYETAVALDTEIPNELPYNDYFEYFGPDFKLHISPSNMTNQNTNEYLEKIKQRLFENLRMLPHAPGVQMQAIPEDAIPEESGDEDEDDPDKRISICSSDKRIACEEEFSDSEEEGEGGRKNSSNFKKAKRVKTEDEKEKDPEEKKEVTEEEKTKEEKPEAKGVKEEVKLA
# Jurkat [10] = assay: Inhibition of cell proliferation of human Jurkat cells assessed as reduction in Ki-67 expression at IC50 measured after 48 hrs by flow cytometry; type: functional, cell-based
# NAMALVA [11] = assay: Inhibition of cell proliferation of human NAMALVA cells assessed as reduction in Ki-67 expression at IC50 measured after 48 hrs by flow cytometry; type: functional, cell-based
# NAMALVA [12] = assay: Induction of apoptosis in human NAMALVA cells at IC50 measured after 48 hrs by flow cytometry; type: functional, cell-based
# [13] = biological target: T2, Protein deacetylase HDAC6 (Homo sapiens, UniProt Q9UBN7); assay: Inhibition of full-length recombinant human HDAC6 expressed in baculovirus infected Sf9 cells using RHKK(Ac)AMC as substrate preincubated for 5 to 10 mins followed by substrate addition measured after 2 hrs by fluorescence based assay
# T2 sequence (Q9UBN7 whole entry): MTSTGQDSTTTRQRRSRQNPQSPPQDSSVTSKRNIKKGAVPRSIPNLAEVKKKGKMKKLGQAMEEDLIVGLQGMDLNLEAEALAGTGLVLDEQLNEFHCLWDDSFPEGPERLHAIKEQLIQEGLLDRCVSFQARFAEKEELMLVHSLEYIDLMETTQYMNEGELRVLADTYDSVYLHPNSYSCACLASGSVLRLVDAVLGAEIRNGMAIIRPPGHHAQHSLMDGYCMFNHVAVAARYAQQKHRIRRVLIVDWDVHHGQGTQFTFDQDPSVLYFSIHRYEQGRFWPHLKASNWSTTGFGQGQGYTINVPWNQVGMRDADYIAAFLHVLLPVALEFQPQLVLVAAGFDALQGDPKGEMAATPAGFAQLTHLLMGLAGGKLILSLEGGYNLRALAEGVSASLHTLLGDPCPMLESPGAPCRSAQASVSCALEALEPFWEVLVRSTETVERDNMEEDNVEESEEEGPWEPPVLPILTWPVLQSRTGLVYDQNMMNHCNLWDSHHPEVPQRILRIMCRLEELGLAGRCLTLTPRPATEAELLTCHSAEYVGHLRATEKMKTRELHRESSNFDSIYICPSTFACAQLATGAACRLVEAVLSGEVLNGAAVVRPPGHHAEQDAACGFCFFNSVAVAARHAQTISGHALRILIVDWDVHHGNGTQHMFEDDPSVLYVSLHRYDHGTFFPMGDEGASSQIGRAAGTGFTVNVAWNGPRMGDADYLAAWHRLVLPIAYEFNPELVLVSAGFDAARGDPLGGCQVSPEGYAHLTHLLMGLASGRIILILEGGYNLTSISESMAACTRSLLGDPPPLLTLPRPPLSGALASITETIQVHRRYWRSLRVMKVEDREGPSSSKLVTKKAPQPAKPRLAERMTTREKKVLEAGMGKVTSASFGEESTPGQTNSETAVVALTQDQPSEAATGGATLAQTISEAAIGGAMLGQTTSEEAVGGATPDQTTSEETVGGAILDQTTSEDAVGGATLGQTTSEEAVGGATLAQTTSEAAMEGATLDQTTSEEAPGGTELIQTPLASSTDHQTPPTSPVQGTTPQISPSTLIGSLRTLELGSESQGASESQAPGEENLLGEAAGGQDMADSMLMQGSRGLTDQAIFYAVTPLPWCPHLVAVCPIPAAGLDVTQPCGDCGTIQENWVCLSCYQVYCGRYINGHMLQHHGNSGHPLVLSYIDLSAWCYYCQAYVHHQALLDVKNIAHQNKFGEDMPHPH
# Histone deacetylase 1 [14] = biological target: T1, Histone deacetylase 1; assay: Inhibition of HDAC1 in human U-937 cells assessed as increase in acetyl-histone H3 level at IC50 incubated for 48 hrs by Western blot analysis; type: cell-based
# Histone deacetylase 1 [15] = biological target: T1, Histone deacetylase 1; assay: Inhibition of HDAC1 in human Jurkat cells assessed as increase in acetyl-alpha-tubulin level at IC50 incubated for 48 hrs by Western blot analysis; type: cell-based
# Histone deacetylase 1 [16] = biological target: T1, Histone deacetylase 1; assay: Inhibition of HDAC1 in human NAMALVA cells assessed as increase in acetyl-alpha-tubulin level at IC50 incubated for 48 hrs by Western blot analysis; type: cell-based
# Histone deacetylase 1 [17] = biological target: T1, Histone deacetylase 1; assay: Inhibition of HDAC1 in human U-937 cells assessed as increase in acetyl-alpha-tubulin level at IC50 incubated for 48 hrs by Western blot analysis; type: cell-based
# [18] = biological target: T3, Protein deacetylase HDAC6 (Homo sapiens) (UniProt Q9UBN7); assay: Inhibition of HDAC6 in human Jurkat cells assessed as increase in acetyl-histone H3 level at IC50 incubated for 48 hrs by Western blot analysis; type: cell-based
# T3 sequence (whole entry): T2 sequence (Q9UBN7 whole entry)
# [19] = biological target: T3, Protein deacetylase HDAC6 (Homo sapiens); assay: Inhibition of HDAC6 in human NAMALVA cells assessed as increase in acetyl-histone H3 level at IC50 incubated for 48 hrs by Western blot analysis; type: cell-based
# [20] = biological target: T3, Protein deacetylase HDAC6 (Homo sapiens); assay: Inhibition of HDAC6 in human Jurkat cells assessed as increase in acetyl-alpha-tubulin level at IC50 incubated for 48 hrs by Western blot analysis; type: cell-based
# [21] = biological target: T3, Protein deacetylase HDAC6 (Homo sapiens); assay: Inhibition of HDAC6 in human NAMALVA cells assessed as increase in acetyl-alpha-tubulin level at IC50 incubated for 48 hrs by Western blot analysis; type: cell-based
# [22] = biological target: T3, Protein deacetylase HDAC6 (Homo sapiens); assay: Inhibition of HDAC6 in human U-937 cells assessed as increase in acetyl-alpha-tubulin level at IC50 incubated for 48 hrs by Western blot analysis; type: cell-based
# CYP2D6 = CYP2D6 (Homo sapiens, UniProt P10635); assay: Inhibition of CYP2D6 in liver microsomes (unknown origin) at 10 uM incubated for 10 mins relative to control; type: ADME, Microsome
# CYP2D6, sequence (P10635 whole entry): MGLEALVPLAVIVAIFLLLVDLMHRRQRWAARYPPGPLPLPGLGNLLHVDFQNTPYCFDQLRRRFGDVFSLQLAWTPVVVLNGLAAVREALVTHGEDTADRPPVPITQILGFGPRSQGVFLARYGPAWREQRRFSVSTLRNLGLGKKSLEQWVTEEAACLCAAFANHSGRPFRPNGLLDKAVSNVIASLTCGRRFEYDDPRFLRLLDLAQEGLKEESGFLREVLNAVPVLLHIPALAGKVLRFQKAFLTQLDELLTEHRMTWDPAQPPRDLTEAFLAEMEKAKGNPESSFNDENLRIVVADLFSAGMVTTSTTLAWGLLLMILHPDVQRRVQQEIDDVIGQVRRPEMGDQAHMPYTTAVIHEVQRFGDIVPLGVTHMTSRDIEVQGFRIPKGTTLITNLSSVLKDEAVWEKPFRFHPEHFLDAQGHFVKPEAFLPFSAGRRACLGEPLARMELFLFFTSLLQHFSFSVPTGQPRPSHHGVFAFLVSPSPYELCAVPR
# [23] = Stability in mouse liver microsome assessed as half life at 1 uM measured for 60 mins by LC-MS/MS analysis; type: ADME; conditions: liver microsomes
# [24] = Stability in human liver microsome assessed as intrinsic clearance at 1 uM measured for 60 mins by LC-MS/MS analysis; type: ADME; conditions: liver microsomes, read-out: CLH
# NAMALVA [25] = assay: cells; conditions: Homo sapiens
IC50 (Histone deacetylase 1 [9]),IC50 [13],inhibition (Histone deacetylase 1 [14]),inhibition (Histone deacetylase 1 [15]),inhibition (Histone deacetylase 1 [16]),inhibition (Histone deacetylase 1 [17]),inhibition [18],inhibition [19],inhibition [20],Compound,Ratio IC50 [1],Ratio IC50 [2],Ratio IC50 [3],Ratio IC50 [4],Ratio IC50 [5],Ratio IC50 [6],Ratio IC50 (Jurkat [7]),Ratio IC50 (NAMALVA [8]),inhibition (Jurkat [10]),inhibition (NAMALVA [11]),Activity (NAMALVA [12]),further results
189 nM,341 nM,Active,Active,Active,Active,Active,Active,Active,O=C(NO)c1ccc(Cn2cnc3c(Nc4ccc(F)c(Cl)c4)ncnc32)cc1,83,83,83,83,>=100,>=100,<=10,<=10,Active,Active,Active,"inhibition [21]: Active; inhibition [22]: Active; inhibition at 10 min, 10 µM (CYP2D6): 10%; half-life at 1 µM [23]: 35 min; microsomal CLint at 1 µM [24]: < 6 µL/min/mg; IC50 (NAMALVA [25]): 40 nM"
118 nM,232 nM,Active,Active,Active,Active,Active,Active,Active,COc1ccc(Nc2ncnc3c2ncn3Cc2ccc(C(=O)NO)cc2)cc1,83,83,83,83,>=100,>=100,<=10,<=10,Active,Active,Active,"inhibition [21]: Active; inhibition [22]: Active; inhibition at 10 min, 10 µM (CYP2D6): 10%; half-life at 1 µM [23]: 50 min; microsomal CLint at 1 µM [24]: < 6 µL/min/mg; IC50 (NAMALVA [25]): 100 nM"
